Assay [1] concerns the target T1, Nav 1.7 (Homo sapiens (Human), UniProt Q15858). Put plainly: Nav 1.7 IonWorks Quattro (IWQ) in vitro assay, population patch-clamp.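 Also: cells held at −110 mV for 3 s, then 26 pulses of 150 ms at 5 Hz, leak-corrected peak current, percent block measured before and after compound, 3–8 min exposure.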 It counts as cell-based. The conditions noted are these: 293 cells stably transfected with Nav 1.7; block at 26th pulse to −20 mV.
Method: (§1) Nav 1.7 and Nav 1.5 Ion Works Quattro (IWQ) In Vitro Assays
(§2) 293 cells stably transfected with either Nav 1.7 or with Nav 1.5 were recorded in population patch-clamp mode with the IonWorks® Quattro automated electrophysiology system in accordance with the manufacturer's specifications (Molecular Devices, LLC, Sunnyvale, Calif.). Sodium channel currents were measured in response to a train of depolarizations that induced successively greater inactivation.
(§3) Cells were held at −110 mV for three seconds (Nav 1.7) or half a second (Nav 1.5) from a holding voltage of −15 mV, then put through a series of 26 pulses of 150 msec duration to −20 mV at a frequency of 5 Hz. Cells were then left unclamped for a period of 3 to 8 minutes while a single concentration of test compound was added. Cells were then reclamped and put through the same voltage protocol. Current at the end of the 26th pulse to −20 mV was subtracted from the peak current evoked by the 26th pulse to −20 mV to correct for leak current. Percent block was calculated for each concentration in duplicate, and IC50 curves were fitted to percent block as a function of concentration.
For assay [2], the target named is T1, Nav 1.7. Put plainly: Nav 1.7 in vitro PatchExpress (PX) assay, whole cell voltage clamp. The assay is classed as cell-based. The conditions noted are these: 293 cells stably transfected with human Nav1.7; partially inactivated state (20 to 50% inactivation). The protocol:
Nav 1.7 In Vitro PatchExpress (PX) Assay
293 cells stably transfected with human Nav1.7 were recorded in whole cell voltage clamp mode with the PatchXpress automated electrophysiology system (Molecular Devices, LLC, Sunnyvale, Calif.). Compound effects were measured on a partially inactivated state of the sodium channel. Cells were clamped to a holding potential yielding 20 to 50% inactivation. To elicit sodium current, channels were activated by pulsing to −10 mV for 20 msec. This voltage protocol was repeated at a rate of 0.1 Hz throughout the experiment. A single concentration of test compound was applied to cells for a duration of 3 minutes. Peak sodium current was measured at the end of the compound addition period to determine percent inhibition.

A further assay addresses Nav 1.5 (Homo sapiens (Human), UniProt Q14524). Nature of the assay: cell-based.

Structures are written as SMILES. Where a name gives a salt, the structure may show the parent alone.

Sequence of Nav 1.5 (Q14524 whole entry): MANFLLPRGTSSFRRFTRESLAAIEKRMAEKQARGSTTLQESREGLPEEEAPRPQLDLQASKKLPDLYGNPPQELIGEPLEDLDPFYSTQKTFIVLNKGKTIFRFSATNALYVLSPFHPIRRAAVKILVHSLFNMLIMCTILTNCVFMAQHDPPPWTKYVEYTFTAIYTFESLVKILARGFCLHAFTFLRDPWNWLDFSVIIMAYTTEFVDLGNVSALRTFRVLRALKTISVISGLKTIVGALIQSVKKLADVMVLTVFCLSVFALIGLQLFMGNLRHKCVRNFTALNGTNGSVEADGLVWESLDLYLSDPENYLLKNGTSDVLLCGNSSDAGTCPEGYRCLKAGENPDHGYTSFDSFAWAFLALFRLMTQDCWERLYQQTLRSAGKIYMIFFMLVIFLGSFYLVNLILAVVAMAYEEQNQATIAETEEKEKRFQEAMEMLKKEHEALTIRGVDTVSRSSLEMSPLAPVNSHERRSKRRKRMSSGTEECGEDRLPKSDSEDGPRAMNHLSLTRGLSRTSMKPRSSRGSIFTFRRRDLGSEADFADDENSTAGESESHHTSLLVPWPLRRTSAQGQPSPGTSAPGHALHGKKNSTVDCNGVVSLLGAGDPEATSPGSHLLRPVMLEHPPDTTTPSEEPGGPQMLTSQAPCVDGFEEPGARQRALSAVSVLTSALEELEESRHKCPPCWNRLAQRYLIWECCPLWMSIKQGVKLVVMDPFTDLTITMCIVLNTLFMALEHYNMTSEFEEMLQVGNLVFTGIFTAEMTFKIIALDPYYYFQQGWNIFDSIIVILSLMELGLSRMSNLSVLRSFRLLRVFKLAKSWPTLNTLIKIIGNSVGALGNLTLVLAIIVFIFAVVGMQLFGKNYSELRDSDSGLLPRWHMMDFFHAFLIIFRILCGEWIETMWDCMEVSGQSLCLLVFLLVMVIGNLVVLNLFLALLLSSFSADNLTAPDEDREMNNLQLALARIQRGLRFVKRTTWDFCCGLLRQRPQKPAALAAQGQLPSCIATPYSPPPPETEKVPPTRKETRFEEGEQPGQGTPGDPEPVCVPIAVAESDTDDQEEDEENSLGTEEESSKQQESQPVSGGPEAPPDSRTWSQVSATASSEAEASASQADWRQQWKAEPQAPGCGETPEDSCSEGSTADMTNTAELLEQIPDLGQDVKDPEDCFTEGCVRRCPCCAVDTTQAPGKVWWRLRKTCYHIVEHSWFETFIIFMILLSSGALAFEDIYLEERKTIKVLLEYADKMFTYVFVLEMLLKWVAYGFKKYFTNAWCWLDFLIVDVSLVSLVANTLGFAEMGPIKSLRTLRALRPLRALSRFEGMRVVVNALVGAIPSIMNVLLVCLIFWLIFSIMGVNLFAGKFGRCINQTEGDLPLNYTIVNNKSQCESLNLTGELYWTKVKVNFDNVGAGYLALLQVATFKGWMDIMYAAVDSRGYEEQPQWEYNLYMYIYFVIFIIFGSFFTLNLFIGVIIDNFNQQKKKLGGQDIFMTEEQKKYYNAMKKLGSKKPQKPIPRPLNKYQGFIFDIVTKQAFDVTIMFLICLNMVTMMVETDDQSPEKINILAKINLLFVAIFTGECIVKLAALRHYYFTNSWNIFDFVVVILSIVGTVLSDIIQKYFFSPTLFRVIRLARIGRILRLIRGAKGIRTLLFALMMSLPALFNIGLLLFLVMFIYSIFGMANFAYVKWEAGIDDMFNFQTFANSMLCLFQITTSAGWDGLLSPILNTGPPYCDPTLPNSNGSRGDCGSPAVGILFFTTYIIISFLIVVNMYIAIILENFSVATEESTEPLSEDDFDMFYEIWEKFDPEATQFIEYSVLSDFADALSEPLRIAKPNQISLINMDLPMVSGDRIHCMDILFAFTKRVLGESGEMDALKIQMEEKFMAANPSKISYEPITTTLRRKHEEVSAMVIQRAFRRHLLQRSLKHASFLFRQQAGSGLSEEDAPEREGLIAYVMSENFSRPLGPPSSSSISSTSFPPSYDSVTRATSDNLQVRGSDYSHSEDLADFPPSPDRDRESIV
T1 sequence (Q15858 whole entry): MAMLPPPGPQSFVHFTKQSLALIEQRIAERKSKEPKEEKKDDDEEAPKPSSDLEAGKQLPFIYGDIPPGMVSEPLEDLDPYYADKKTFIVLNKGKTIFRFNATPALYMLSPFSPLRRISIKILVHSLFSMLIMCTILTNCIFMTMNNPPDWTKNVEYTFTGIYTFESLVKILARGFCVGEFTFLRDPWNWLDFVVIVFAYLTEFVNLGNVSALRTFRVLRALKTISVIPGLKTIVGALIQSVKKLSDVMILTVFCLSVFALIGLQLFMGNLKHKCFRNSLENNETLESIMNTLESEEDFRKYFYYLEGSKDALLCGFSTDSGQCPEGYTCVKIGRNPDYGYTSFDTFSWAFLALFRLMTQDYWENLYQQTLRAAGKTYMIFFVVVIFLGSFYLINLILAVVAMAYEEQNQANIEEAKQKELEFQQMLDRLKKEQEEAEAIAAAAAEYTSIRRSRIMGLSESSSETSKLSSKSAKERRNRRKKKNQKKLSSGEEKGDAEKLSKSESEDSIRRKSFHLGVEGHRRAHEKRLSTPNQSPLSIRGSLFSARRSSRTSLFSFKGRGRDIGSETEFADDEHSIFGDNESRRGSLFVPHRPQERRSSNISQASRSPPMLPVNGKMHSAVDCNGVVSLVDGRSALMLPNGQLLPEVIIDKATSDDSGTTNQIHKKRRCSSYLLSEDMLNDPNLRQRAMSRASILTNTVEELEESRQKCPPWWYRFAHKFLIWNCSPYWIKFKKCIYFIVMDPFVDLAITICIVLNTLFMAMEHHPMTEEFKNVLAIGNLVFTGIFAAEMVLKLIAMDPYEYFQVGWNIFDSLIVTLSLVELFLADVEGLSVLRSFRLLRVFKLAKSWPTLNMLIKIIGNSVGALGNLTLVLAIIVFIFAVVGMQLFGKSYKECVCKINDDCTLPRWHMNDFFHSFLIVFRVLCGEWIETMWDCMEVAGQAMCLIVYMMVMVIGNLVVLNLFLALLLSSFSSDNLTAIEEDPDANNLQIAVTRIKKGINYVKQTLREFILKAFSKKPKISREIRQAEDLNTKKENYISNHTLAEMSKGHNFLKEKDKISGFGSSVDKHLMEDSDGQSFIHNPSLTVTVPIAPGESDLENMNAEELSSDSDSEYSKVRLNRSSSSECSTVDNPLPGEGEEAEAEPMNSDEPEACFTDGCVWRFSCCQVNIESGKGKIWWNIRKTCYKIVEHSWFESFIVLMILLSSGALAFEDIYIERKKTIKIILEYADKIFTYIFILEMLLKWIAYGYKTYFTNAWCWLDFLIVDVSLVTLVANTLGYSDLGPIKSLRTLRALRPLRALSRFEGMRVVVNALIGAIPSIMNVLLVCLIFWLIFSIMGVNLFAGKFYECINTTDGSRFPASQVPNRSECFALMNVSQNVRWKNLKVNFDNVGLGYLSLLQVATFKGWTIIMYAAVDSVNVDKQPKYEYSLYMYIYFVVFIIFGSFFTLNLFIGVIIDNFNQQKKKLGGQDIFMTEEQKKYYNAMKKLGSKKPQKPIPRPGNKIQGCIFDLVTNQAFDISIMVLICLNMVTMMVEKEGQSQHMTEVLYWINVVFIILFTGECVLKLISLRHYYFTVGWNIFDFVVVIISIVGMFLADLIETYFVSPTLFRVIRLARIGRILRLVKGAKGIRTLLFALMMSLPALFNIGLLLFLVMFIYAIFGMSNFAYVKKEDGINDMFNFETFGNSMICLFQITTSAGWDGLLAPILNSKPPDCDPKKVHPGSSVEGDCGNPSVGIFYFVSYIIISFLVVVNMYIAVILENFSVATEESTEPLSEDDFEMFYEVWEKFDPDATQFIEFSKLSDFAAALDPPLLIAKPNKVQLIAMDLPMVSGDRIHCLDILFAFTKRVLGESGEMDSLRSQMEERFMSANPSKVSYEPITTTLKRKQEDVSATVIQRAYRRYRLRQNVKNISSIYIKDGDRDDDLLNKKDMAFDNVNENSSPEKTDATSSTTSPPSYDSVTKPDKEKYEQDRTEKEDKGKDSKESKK
Method for Nav 1.5: as §1, §2, §3

As usually defined, the IC50 is the point on the concentration scale where inhibition reaches its midpoint. The low end stands for greater potency in that assay, the high end for weaker potency in that assay. For the molecule `Cc1cn(-c2cc(C(F)(F)F)ccc2-c2cccc3c2CCN(S(=O)(=O)Nc2ncc(F)s2)C3)cn1` [Example 42, N-(5-fluorothiazol-2-yl)-5-(2-(4-methyl-1H-imidazol-1-yl)-4-(trifluoromethyl)phenyl)-3,4-dihydroisoquinoline-2(1H)-sulfonamide], the IC50 at Nav 1.7 [1] is 0.228 µM; against Nav 1.7 [2], 1.34 µM; against Nav 1.5 it was > 10 µM.

`CN1CC=C(c2cc(C(F)(F)F)ccc2-c2cccc3c2CCN(S(=O)(=O)Nc2ncns2)C3)CC1` [Example 15, 5-(2-(1-Methyl-1,2,3,6-tetrahydropyridin-4-yl)-4-(trifluoromethyl)phenyl)-N-(1,2,4-thiadiazol-5-yl)-3,4-dihydroisoquinoline-2(1H)-sulfonamide]: the IC50 on Nav 1.7 [1] is 0.0783 µM; against Nav 1.7 [2], 0.09 µM; against Nav 1.5 it was > 10 µM.

On to `Cc1cncn1-c1cc(C(F)(F)F)ccc1-c1cccc2c1CCN(S(=O)(=O)Nc1ncc(F)s1)C2` [Example 43, N-(5-Fluorothiazol-2-yl)-5-(2-(5-methyl-1H-imidazol-1-yl)-4-(trifluoromethyl)phenyl)-3,4-dihydroisoquinoline-2(1H)-sulfonamide], for which the figures for the IC50 against Nav 1.7 [1], against Nav 1.7 [2] and at Nav 1.5 were 0.171 µM, 1.92 µM and > 10 µM, respectively.

`CN1CC=C(c2cc(Cl)cc(F)c2-c2cccc3c2CCN(S(=O)(=O)Nc2ncc(F)s2)C3)CC1` [Example 54, 5-(4-Chloro-2-fluoro-6-(1-methyl-1,2,3,6-tetrahydropyridin-4-yl)phenyl)-N-(5-fluorothiazol-2-yl)-3,4-dihydroisoquinoline-2(1H)-sulfonamide]: the IC50 was 14.9 µM against Nav 1.7 [1] and > 10 µM on Nav 1.5.

`COc1cc(C(F)(F)F)ccc1-c1nccc2c1CCN(S(=O)(=O)Nc1ncns1)C2` [Example 46, 5-(2-Methoxy-4-(trifluoromethyl)phenyl)-N-(1,2,4-thiadiazol-5-yl)-3,4-dihydro-2,6-naphthyridine-2(1H)-sulfonamide]: the results for the IC50 against Nav 1.7 [1], against Nav 1.7 [2] and against Nav 1.5 were 0.019 µM, 0.94 µM and > 10 µM, respectively.

Regarding `Cc1cncc(-c2cc(C(F)(F)F)ccc2-c2cccc3c2CCN(S(=O)(=O)Nc2ncns2)C3)c1` [Example 21, 5-(2-(5-Methylpyridin-3-yl)-4-(trifluoromethyl)phenyl)-N-(1,2,4-thiadiazol-5-yl)-3,4-dihydroisoquinoline-2(1H)-sulfonamide], the IC50 came out at 1.8 µM against Nav 1.7 [1] and 4.08 µM on Nav 1.5.

`COc1cc(-c2ccc(F)c(F)c2)ccc1-c1cccc2c1CCN(S(=O)(=O)Nc1nncs1)C2` [Example 62, 5-(3′,4′-difluoro-3-methoxy-[1,1′-biphenyl]-4-yl)-N-(1,3,4-thiadiazol-2-yl)-3,4-dihydroisoquinoline-2(1H)-sulfonamide]: the IC50 against Nav 1.7 [2] was found to be 8.05 µM.

On to `COc1cc(C(F)(F)F)ccc1-c1ccnc2c1CCN(S(=O)(=O)Nc1ccncn1)C2` [Example 64, 4-(2-methoxy-4-(trifluoromethyl)phenyl)-N-4-pyrimidinyl-5,8-dihydro-1,7-naphthyridine-7(6H)-sulfonamide], for which, on Nav 1.7 [2], half-maximal inhibition (IC50) required 6.19 µM.

Consider `Cn1nccc1-c1cc(C(F)(F)F)ccc1-c1cccc2c1CCN(S(=O)(=O)Nc1ncccn1)C2` [Example 49, 5-(2-(1-Methyl-1H-pyrazol-5-yl)-4-(trifluoromethyl)phenyl)-N-(pyrimidin-2-yl)-3,4-dihydroisoquinoline-2(1H)-sulfonamide], for which the IC50 was 12.7 µM against Nav 1.7 [1], 14.6 µM against Nav 1.7 [2] and > 10 µM on Nav 1.5.

Take `CN1CC=C(c2ccc(C(F)(F)F)cc2-c2cccc3c2CCN(S(=O)(=O)Nc2ncc(F)s2)C3)CC1` [Example 40, N-(5-Fluorothiazol-2-yl)-5-(2-(1-methyl-1,2,3,6-tetrahydropyridin-4-yl)-5-(trifluoromethyl)phenyl)-3,4-dihydroisoquinoline-2(1H)-sulfonamide]: the results for the IC50 against Nav 1.7 [1], on Nav 1.7 [2] and on Nav 1.5 were 2.81 µM, 12.1 µM and > 10 µM, respectively.

Take `O=S(=O)(Nc1ncc(F)s1)N1CCc2c(cccc2-c2ccc(C(F)(F)F)cc2C2CCNCC2)C1` [Example 35, N-(5-Fluorothiazol-2-yl)-5-(2-(piperidin-4-yl)-4-(trifluoromethyl)phenyl)-3,4-dihydroisoquinoline-2(1H)-sulfonamide hydrochloride]: the figures for the IC50 on Nav 1.7 [1], against Nav 1.7 [2] and at Nav 1.5 were 0.315 µM, 0.17 µM and > 10 µM, respectively.

For the molecule `Cn1cc(-c2cc(C(F)(F)F)ccc2-c2cccc3c2CCN(S(=O)(=O)Nc2ncns2)C3)cn1` [Example 16, 5-(2-(1-Methyl-1H-pyrazol-4-yl)-4-(trifluoromethyl)phenyl)-N-(1,2,4-thiadiazol-5-yl)-3,4-dihydroisoquinoline-2(1H)-sulfonamide], the IC50 was 2.66 µM at Nav 1.7 [1], 5.42 µM against Nav 1.7 [2] and > 10 µM against Nav 1.5.

Regarding `COc1ccc(OC)c(-c2cccc3c2CCN(S(=O)(=O)Nc2ncns2)C3)c1` [Example 27, 5-(2,5-Dimethoxyphenyl)-N-(1,2,4-thiadiazol-5-yl)-3,4-dihydroisoquinoline-2(1H)-sulfonamide], the IC50 at Nav 1.7 [1] is 0.125 µM; on Nav 1.7 [2], 0.67 µM; on Nav 1.5 it was > 10 µM.

In the case of `COc1cccc(OC)c1-c1cccc2c1CCN(S(=O)(=O)Nc1ncns1)C2` [Example 28, 5-(2,6-Dimethoxyphenyl)-N-(1,2,4-thiadiazol-5-yl)-3,4-dihydroisoquinoline-2(1H)-sulfonamide], the IC50 against Nav 1.7 [1] was 4.67 µM; against Nav 1.7 [2], > 30 µM; against Nav 1.5, > 10 µM.

On to `CN1CC=C(c2cc(C(F)(F)F)ccc2-c2cccc3c2CCN(S(=O)(=O)Nc2ncc(F)s2)C3)CC1` [Example 39, N-(5-Fluorothiazol-2-yl)-5-(2-(1-methyl-1,2,3,6-tetrahydropyridin-4-yl)-4-(trifluoromethyl)phenyl)-3,4-dihydroisoquinoline-2(1H)-sulfonamide], for which the results for the IC50 against Nav 1.7 [1], on Nav 1.7 [2] and against Nav 1.5 were 0.24 µM, 1.17 µM and > 10 µM, respectively.

As for `COc1cc(F)ccc1-c1cccc2c1CCN(S(=O)(=O)Nc1ncns1)C2` [Example 30, 5-(4-Fluoro-2-methoxyphenyl)-N-(1,2,4-thiadiazol-5-yl)-3,4-dihydroisoquinoline-2(1H)-sulfonamide], the IC50 against Nav 1.7 [1] was 0.137 µM; against Nav 1.7 [2] it was 0.56 µM; on Nav 1.5, > 10 µM.

For the molecule `O=S(=O)(Nc1ncns1)N1CCc2c(cccc2-c2ccc(C(F)(F)F)cc2C2=CCOCC2)C1` [Example 19, 5-(2-(3,6-Dihydro-2H-pyran-4-yl)-4-(trifluoromethyl)phenyl)-N-(1,2,4-thiadiazol-5-yl)-3,4-dihydroisoquinoline-2(1H)-sulfonamide], the IC50 against Nav 1.7 [1] was 0.378 µM; against Nav 1.7 [2] it was 1.71 µM; against Nav 1.5, > 10 µM.

With `COc1ccc(-c2ccc(F)c(F)c2)cc1-c1cccc2c1CCN(S(=O)(=O)Nc1nncs1)C2` [Example 63, 5-(3′,4′-difluoro-4-methoxy-[1,1′-biphenyl]-3-yl)-N-(1,3,4-thiadiazol-2-yl)-3,4-dihydroisoquinoline-2(1H)-sulfonamide], on Nav 1.7 [2], the IC50 is 11.2 µM.

Take `O=S(=O)(Nc1ncns1)N1CCc2c(cccc2-c2cccc3[nH]ncc23)C1` [Example 51, 5-(1H-Indazol-4-yl)-N-(1,2,4-thiadiazol-5-yl)-3,4-dihydroisoquinoline-2(1H)-sulfonamide]: the IC50 at Nav 1.7 [1] is 19.1 µM; against Nav 1.5, > 10 µM.

Consider `COc1cc(C(F)(F)F)ccc1-c1ncnc2c1CCN(S(=O)(=O)Nc1ncc(F)s1)C2` [Example 60, N-(5-fluorothiazol-2-yl)-4-(2-methoxy-4-(trifluoromethyl)phenyl)-5,6-dihydropyrido[3,4-d]pyrimidine-7(8H)-sulfonamide], for which the IC50 against Nav 1.7 [2] came to 0.81 µM.

Turning to `COc1cc(C(F)(F)F)ccc1-c1cccc2c1CN(S(=O)(=O)Nc1ncns1)CC2` [Example 55, 8-(2-Methoxy-4-(trifluoromethyl)phenyl)-N-(1,2,4-thiadiazol-5-yl)-3,4-dihydroisoquinoline-2(1H)-sulfonamide], the IC50 was 9.44 µM against Nav 1.7 [1] and > 10 µM at Nav 1.5.

On to `O=S(=O)(Nc1ncns1)N1CCc2c(cccc2-c2cncc3ccccc23)C1` [Example 25, N-(1,2,4-Thiadiazol-5-yl)-3′,4′-dihydro-[4,5′-biisoquinoline]-2′(1′H)-sulfonamide], for which the IC50 against Nav 1.7 [1] was 6.9 µM; on Nav 1.5, > 10 µM.

Take `CC(C)(C)OC(=O)N1CC=C(c2cccc3c2CCN(S(=O)(=O)Nc2ncns2)C3)CC1` [Example 57, tert-Butyl 4-(2-(N-(1,2,4-thiadiazol-5-yl)sulfamoyl)-1,2,3,4-tetrahydroisoquinolin-5-yl)-5,6-dihydropyridine-1(2H)-carboxylate]: the IC50 at Nav 1.7 [1] was 7.1 µM; against Nav 1.5, > 10 µM.

`COc1cncc(-c2cc(C(F)(F)F)ccc2-c2cccc3c2CCN(S(=O)(=O)Nc2ncns2)C3)c1` [Example 20, 5-(2-(5-Methoxypyridin-3-yl)-4-(trifluoromethyl)phenyl)-N-(1,2,4-thiadiazol-5-yl)-3,4-dihydroisoquinoline-2(1H)-sulfonamide]: the IC50 was 5.83 µM at Nav 1.7 [1] and > 10 µM against Nav 1.5.

For `COc1ncccc1-c1cccc2c1CCN(S(=O)(=O)Nc1ncns1)C2` [Example 50, 5-(2-Methoxypyridin-3-yl)-N-(1,2,4-thiadiazol-5-yl)-3,4-dihydroisoquinoline-2(1H)-sulfonamide], the IC50 was 7.6 µM against Nav 1.7 [1] and > 10 µM on Nav 1.5.
